Records with an inconclusive call do not appear. Calls of active or inactive are those of the source. The rule behind the calls is not given here.
Test system: not listed separately
Assay: mouse embryonic fibroblast toxicity – cell-based, plate reader, dry powder, set 2, cytotoxicity control, dose response (AID 652280)
Conditions: NIH/3T3 mouse fibroblast toxicity, plate reader; at 16 µM (top of the series)

| SMILES | activity change, negative = toxicity |
| --- | --- |
| CC(C)N1CC2(CN(C(=O)c3ccc(Cl)cc3)C2)Oc2c(NC(=O)c3ccncc3)cccc2C1=O | 10.5% (inactive) |
| CC(C)(C)[S@](=O)N1Cc2cc(C(=O)NCc3ccc4c(c3)OCO4)nc(-c3cccc(-c4ccncc4)c3)c2[C@@H]1CCO | -21.4% (inactive) |
| CC(C)(C)S(=O)N1Cc2cc(C(=O)NCc3ccc4c(c3)OCO4)nc(-c3cccc(-c4cccc(F)c4)c3)c2[C@H]1CCO (some centres not stated) | 12.7% (inactive) |
| CN1CCCCN2[C@@H](CO)[C@H](c3ccc(Br)cc3)[C@@H]2C1 | -2.42% (inactive) |
| C[C@H]1CN([C@@H](C)CO)C(=O)c2cccc(NC(=O)c3ccncc3)c2O[C@@H]1CN(C)Cc1ccc(Cl)cc1 | -41.2% (inactive) |
| CC(C)N1CC2(CN(Cc3ccccn3)C2)Oc2c(NC(=O)c3ccncc3)cccc2C1=O | -3.3% (inactive) |
| CCC(=O)N1CC[C@@H]2[C@H]1c1cc(Br)ccc1N(C)[C@@H]2CO | -1.86% (inactive) |
| CC(C)N1C[C@H](CNCc2ccc(Oc3ccccc3)cc2)Oc2c(NC(=O)c3ccncc3)cccc2C1=O | 5.88% (inactive) |
| CC(=O)N1CCCCN2[C@@H](CO)[C@H](c3ccc(-c4cccc(C(=O)N(C)C)c4)cc3)[C@@H]2C1 | 24.4% (inactive) |
| CC(C)N1C[C@H](CN(C)Cc2ccc(Cl)cc2)Oc2c(NC(=O)c3ccncc3)cccc2C1=O | -35.4% (inactive) |
| Cc1cccc(CN(C)C[C@H]2Oc3c(NC(=O)c4ccncc4)cccc3C(=O)N([C@@H](C)CO)C[C@@H]2C)c1 | -19.1% (inactive) |

Test system: NIH/3T3 mouse fibroblast toxicity, plate reader
Assay: as above
Conditions: not given

| SMILES | AC50 [µM] |
| --- | --- |
| C[C@@H]1CN([C@@H](C)CO)C(=O)c2cccc(NC(=O)c3ccncc3)c2O[C@H]1CN(C)Cc1ccc(Oc2ccccc2)cc1 | 3.31 |

Source: PubChem BioAssay AID652280 (Broad Institute, 2013)
